Test results published in patent US20100063020A1, “ORAL PHARMACEUTICAL FORMULATIONS AND METHODS FOR PRODUCING AND USING SAME” (priority 2004, published 2010).

How the values were obtained:
[1] = Intrinsic dissolution of high melt and low melt forms of 17-AAG in ethanol; type: physicochemical
Procedure: The performance of an active pharmaceutical ingredient (i.e., dissolution rate) can be affected by polymorphic state. The intrinsic dissolution of the high melt and low melt forms of 17-AAG were determined in ethanol. Ethanol was chosen as the solvent since 17-AAG is soluble in ethanol.

[2] = Solvent stability of low melt form (slurry in H2O:EtOH 90:10); type: physicochemical
Procedure: 17-AAG may be prepared from geldanamycin by reacting with allyamine in dry THF under a nitrogen atmosphere. The crude product may be purified by slurrying in H2O:EtOH (90:10), and the washed crystals obtained have a melting point of 206-212° C. by capillary melting point technique. […] The two 17-AAG products are designated as the low melt form and high melt form.
MP=147-155° C. ^1 H NMR and HPLC are consistent with the desired product.

[3] = in vitro; type: in vitro ADME; details: human, Caco-2
Text: The permeability of the pharmaceutical active ingredient across the gastrointestinal membrane may be estimated from it permeability across a Caco-2 cell monolayer using standard techniques (e.g. Chong S et al. Pharmaceutical Research 1997 14(12):1835-1837). The reference is hereby expressly incorporated by reference.
Propranolol was included in each assay as a high permeability control compound.

Compound	intrinsic dissolution rate [1] [mg/cm^2/min]	percent higher intrinsic dissolution rate of low melt form vs high melt form [1] [%]	conversion of polymorphic form on slurrying [2]	Papp [3] [×10⁻⁶ cm/s]
C=CCNC1=C2C[C@@H](C)C[C@H](OC)[C@H](O)[C@@H](C)/C=C(\C)[C@H](OC(N)=O)[C@@H](OC)/C=C\C=C(/C)C(=O)NC(=CC1=O)C2=O [low melt form of 17-AAG, 17-allylamino-17-demethoxygeldanamycin]	0.885	60	no conversion to the high melt form was observed	–
C=CCNC1=C2C[C@@H](C)C[C@H](OC)[C@H](O)[C@@H](C)/C=C(\C)[C@H](OC(N)=O)[C@@H](OC)/C=C\C=C(/C)C(=O)NC(=CC1=O)C2=O [high melt form, 17-allylamino-17-demethoxygeldanamycin]	0.550	–	–	–
CC(C)NCC(O)COc1cccc2ccccc12 (centres unmarked) [propranolol]	–	–	–	16
